These results are taken from patent publication US7598271B1, “Crystalline paroxetine methane sulfonate” (Noven Therapeutics, LLC, priority 1997, dated 2009).

Structures can show the parent of a compound that is named as a salt. Where two headings read alike, the source gives them in different places.

The conditions of series [1]: causes undesired colouration during classical wet tabletting; cited from earlier work.
The conditions of series [2]: background statement; cited from earlier work.
Series [3] is described as follows: Solubility of paroxetine salts in water. Type of series: physicochemical. The settings on record: for solubility: water.
Series [4] can be described thus: Hygroscopicity test of paroxetine salts (40° C., 75% rel. hum). Type of series: physicochemical. The source says:
(§1) In the following tables 2 and 3, examples of results of hygroscopicity tests and stability tests (in comparison with known salts of paroxetine) are presented.

Series [5] in a line: Stability of paroxetine salts by HPLC (total amount of degradation). Type of series: physicochemical.
Description: as §1

The conditions of series [6]: background statement on known salts; cited from earlier work.

On to `Fc1ccc([C@@H]2CCNC[C@H]2COc2ccc3c(c2)OCO3)cc1` [hydrochloride hemihydrate, paroxetine hydrochloride hemihydrate, reference compound], for which the “photostability (in words)” value in series [1] is given as “limited photostability”. The “solubility in water (in words)” value in series [2] was “only limited solubility in water”. The results for the solubility in series [3] (20 °C) and in series [3] (50 °C) were 4.9 mg/mL and 12.6 mg/mL, respectively.

Take `Cc1ccc(S(=O)(=O)O)cc1.Fc1ccc([C@@H]2CCNC[C@H]2COc2ccc3c(c2)OCO3)cc1` [p-toluene sulfonate, Paroxetine p-Toluene Sulfonate]: the “Solubility in 2-Propanol” value is, setting by setting: (20° C.) 14 mg/mL; (82° C.) more than 500 mg/mL. For the same molecule, the “Solubility in Acetone” value is 16 mg/mL (20° C.) and 125 mg/mL (56° C.). In addition, the “Solubility in Ethanol” value is, setting by setting: (20° C.) 50 mg/mL; (78° C.) more than 500 mg/mL. For the same molecule, the “Solubility in Ethyl acetate” value was 22 mg/mL (20° C.) and more than 500 mg/mL (77° C.). Moreover, the “Solubility in n-Hexane” value reads like this: (20° C.) less than 0.05 mg/mL; (69° C.) less than 0.05 mg/mL. The “water content (in %) at t = 0” value in series [4] was determined as 0.70%. Further, the “water content (in %) at t = 4 weeks” value in series [4] is listed as less than 0.02%. In addition, the Solubility in water in series [3] (20° C.) and in series [3] (50° C.) was more than 1000 mg/mL in each case. In addition, the “total amount of degradation by HPLC” value in series [5] (20° C., time not given) is “not observed”; in series [5] (80° C., 3 months) it was <0.2%, 3 months.

Consider Paroxetine Acetate, for which, in series [6], the “stability (in words)” value was “unstable”.

As for `CS(=O)(=O)O.Fc1ccc([C@@H]2CCNC[C@H]2COc2ccc3c(c2)OCO3)cc1` [methane sulfonate, Paroxetine Methane Sulfonate], the “Solubility in 2-Propanol” value (20° C.) was 7 mg/mL and the “Solubility in 2-Propanol” value (82° C.) worked out at 330 mg/mL. Moreover, the “Solubility in Acetone” value is, setting by setting: (20° C.) 5 mg/mL; (56° C.) 37 mg/mL. The “Solubility in Ethanol” value stood at 36 mg/mL (20° C.) and 250 mg/mL (78° C.). The “Solubility in Ethyl acetate” value by setting is: (20° C.) 2 mg/mL; (77° C.) 25 mg/mL. For the same molecule, the “Solubility in n-Hexane” value was less than 0.05 mg/mL (20° C.) and 0.05 mg/mL (69° C.). The “water content (in %) at t = 0” value in series [4] was determined as 0.35%. In series [4], the “water content (in %) at t = 4 weeks” value is recorded as “+0.04%”. For the same molecule, the Solubility in water was >1000/10 min mg/ml in series [3] (20° C.) and 1300 mg/mL in series [3] (50° C.). The “total amount of degradation by HPLC” value in series [5] (20° C., time not given) is given as “not observed”; in series [5] (80° C., 3 months) it was <0.2%, 3 months.

`Fc1ccc([C@@H]2CCNC[C@H]2COc2ccc3c(c2)OCO3)cc1` [hydrochloride, paroxetine hydrochloride, reference compound]: the “water content (in %) at t = 4 weeks” value in series [4] is “+2.5%”.

Consider `Fc1ccc([C@@H]2CCNC[C@H]2COc2ccc3c(c2)OCO3)cc1` [hydrochloride anhydrate, paroxetine hydrochloride, reference compound], for which the Solubility in water was determined as 8.2 mg/mL in series [3] (20° C., hydrochloride) and 24.2 mg/mL in series [3] (50° C., hydrochloride).

As for Paroxetine Maleate [reference compound], in series [6], the “stability (in words)” value was “unstable”. Also, the “total amount of degradation by HPLC” value in series [5] (20° C., 12 months) was 0.2%, 12 months; in series [5] (80° C., 5 days) it was >50%, 5 days.

The solubility is the dissolved amount per volume that the medium holds.
